Data: patent US12173026B2, “PRMT5 inhibitors” (Merck Sharp & Dohme LLC, priority 2018, dated 2024)

Tested on: symmetric dimethylation of arginine (SDMA) of PRMT5 substrates in MCF-7 cells
Assay: PRMT5 Cell Target Engagement (TE) Assay
Assay type: cell-based
Settings: Homo sapiens, MCF7, 72 h; MCF-7 cells treated for 3 days; nuclear SDMA by high content imaging; top concentration 10000 nM
Source text: PRMT5 Cell Target Engagement (TE) Assay
The PRMT5 TE assay is a biomarker assay for identifying compounds that inhibit symmetric dimethylation of arginine (SDMA) of PRMT5 substrates. The following substrates have been reported for PRMT5: Histone H2A and H4 R3, Histone H3 R2, Histone 1-13 R8, spliceosome Sm proteins, ribosomal protein RPS10, p53, FEN1, nucleoplasmin, nucleolin, EGFR and EBNA. The assay will focus on detecting symnetrically dimethylated nuclear proteins using high content imaging technology. Detection of the expression of symmetrically dimethylated nuclear proteins is through a mixture of primary rabbit monoclonal antibodies to SDMA (CST 13222) which in turn recognized by an Alexafluor 488 dye-conjugated anti-rabbit IgG secondary antibody. The IN Cell Analyzer 2200 or Opera-Phenix measures nuclear Alexafluor 488 fluorescent dye intensity that is directly related to the level of expression of symmetrically dimethylated nuclear proteins at the single cell level. Nuclear AF488 dye intensities are compared to the mean value for DMSO treated cells (MIN) to report percent of inhibition for each compound-treated well.
In this assay, the cell potency (EC50) of each compound was determined from a ten point (1:3 serial dilution; top compound concentration of 10000 nM) titration curve using the following outlined procedure. Each well of a BD falcon collagen coated black/clear bottom 384-well plate was seeded with 4000 MCF-7 cells in 30 pal media and allowed to attach for 5 hours. Media is ATCC-formulated Eagle's Minimum Essential Medium, Catalog No. 30-2003. The following components were added to the base medium: 0.01 mg/mL human recombinant insulin; fetal bovine serum to a final concentration of 10%. Additional 30 pal of media containing 2× compounds were added to each well. Cells were treated for 3 days in 37° C. CO2 incubator. On day 3, cells were fixed with Cytofix, permeabilized with 0.4% Triton-X-100/Cytofix, and washed with D-PBS without Ca/Mg. Cells were blocked with Licor Odessey blocking reagent for 1 hour at room temperature, followed by incubation with anti-SDMA (1:1000) antibody at 4° C. overnight. 1° antibody was removed, followed by three washings with DPBS without Ca/Mg and 0.05% Tween20. Hoechst (5 μg/mL), Cell Mask deep stain (1:2000) and Alexa488-conjugated goat anti-rabbit IgG (2 μg/mL) was added for 1 hour at room temperature. A final washing step (three washes) was performed before sealing plate for imaging on in Cell Analyzer 2200 or Opera-Phenix. Images from analyzer were uploaded to Columbus for image analysis. IC50 values were determined by 4 parameters robust fit of percent fluorescence units vs. (Log 10) compound concentrations.

Nc1nc2cc(O[C@H]3CC[C@@]4(O)[C@@H]3O[C@@H](n3ccc5c(N)ncnc53)[C@@H]4O)ccc2cc1Br [Example 6, (2R,3R,3aS,6S,6aR)-6-((2-amino-3-bromoquinolin-7-yl)oxy)-2-(4-amino-7H-pyrrolo[2,3-d]pyrimidin-7-yl)hexahydro-2H-cyclopenta[b]furan-3,3a-diol] was tested, and the EC50 was 1.2 nM.
C[C@@]1(O)[C@@H](COc2ccc3cc(Br)c(N)nc3c2)O[C@@H](n2ccc3c(N)ncnc32)[C@@H]1O [Example 10, (2R,3S,4R,5R)-2-(((2-amino-3-bromoquinolin-7-yl)oxy)methyl)-5-(4-amino-7H-pyrrolo[2,3-d]pyrimidin-7-yl)-3-methyltetrahydrofuran-3,4-diol] gave an EC50 of 6.4 nM.
Work on Cc1ncnc2c1ccn2[C@@H]1C[C@](C)(CCc2ccc3cc(Br)c(N)nc3c2)[C@@H](O)[C@H]1O [Example 109, (1S,2R,3S,5R)-3-(2-(2-amino-3-bromoquinolin-7-yl)ethyl)-3-methyl-5-(4-methyl-7H-pyrrolo[2,3-d]pyrimidin-7-yl)cyclopentane-1,2-diol] yielded an EC50 of 5.9 nM.
Cc1cn([C@@H]2C[C@@H]3[C@H](Cc4ccc5cc(Cl)c(N)nc5c4)CC[C@]3(O)[C@H]2O)c2ncnc(N)c12 [Example 39, (1S,2R,3aR,4S,6aR)-4-((2-amino-3-chloroquinolin-7-yl)methyl)-2-(4-amino-5-methyl-7H-pyrrolo[2,3-d]pyrimidin-7-yl)hexahydropentalene-1,6a(1H)-diol] showed an EC50 of 0.3 nM.
In the case of Cc1cn([C@@H]2O[C@@H]3[C@H](Cc4ccc5cc(Br)c(N)nc5c4)OC[C@]3(O)[C@H]2O)c2ncnc(N)c12 [Example 135, (2R,3R,3aS,6S,6aR)-6-((2-amino-3-bromoquinolin-7-yl)methyl)-2-(4-amino-5-methyl-7H-pyrrolo[2,3-d]pyrimidin-7-yl)tetrahydrofuro[3,4-b]furan-3,3a(4H)-diol], the EC50 is reported as 0.6 nM.
For Cc1cn([C@@H]2C[C@@H]3[C@H](Cc4ccc5cc(F)c(N)nc5c4)CC[C@]3(O)[C@H]2O)c2ncnc(N)c12 [Example 38, (1S,2R,3aR,4S,6aR)-4-((2-amino-3-fluoroquinolin-7-yl)methyl)-2-(4-amino-5-methyl-7H-pyrrolo[2,3-d]pyrimidin-7-yl)hexahydropentaiene-1,6a(1H)-diol], the EC50 was 0.6 nM.
In the case of Nc1ncnc2c1ccn2[C@@H]1O[C@@H]2[C@@H](Oc3ccc4ccc(NCC5CC5)nc4c3)CC[C@]2(O)[C@H]1O [Example 58, (2R,3R,3aS,6S,6aR)-2-(4-amino-7H-pyrrolo[2,3-d]pyrimidin-7-yl)-6-((2-((cyclopropylmethyl)amino)quinolin-7-yl)oxy)hexahydro-3aH-cyclopenta[b]furan-3,3a-diol], the EC50 is reported as 1 nM.
Molecule Cc1ncnc2c1ccn2[C@@H]1O[C@@H]2[C@H](Cc3ccc4cc(Cl)c(N)nc4c3)CC[C@]2(O)[C@H]1O [Example 122, (2R,3R,3aS,6S,6aR)-6-((2-amino-3-chloroquinolin-7-yl)methyl)-2-(4-methyl-7H-pyrrolo[2,3-d]pyrimidin-7-yl)hexahydro-3aH-cyclopenta[b]furan-3,3a-diol] has an EC50 of 2.5 nM.
Work on Cc1ncnc2c1ccn2[C@@H]1C[C@](C)(CCc2ccc3cc4c(nc3c2)NCC4)[C@@H](O)[C@H]1O [Example 110, (1S,2R,3S,5R)-3-(2-(2,3-dihydro-1H-pyrrolo[2,3-b]quinolin-7-yl)ethyl)-3-methyl-5-(4-methyl-7H-pyrrolo[2,3-d]pyrimidin-7-yl)cyclopentane-1,2-diol] yielded an EC50 of 39.6 nM.
Work on CNc1ncnc2c1ccn2[C@@H]1O[C@@H]2[C@H](Cc3ccc4cc(F)c(N)nc4c3)CC[C@]2(O)[C@H]1O [Example 95, (2R,3R,3aS,6S,6aR)-6-((2-amino-3-fluoroquinolin-7-yl)methyl)-2-(4-(methylamino)-7H-pyrrolo[2,3-d]pyrimidin-7-yl)hexahydro-3aH-cyclopenta[b]furan-3,3a-diol] yielded an EC50 of 47 nM.
Cc1nc(N)c2ccn([C@@H]3C[C@@H]4[C@H](Cc5ccc6cc(Br)c(N)nc6c5)CC[C@]4(O)[C@H]3O)c2n1 [Example 37, (1S,2R,3aR,4S,6aR)-2-(4-amino-2-methyl-7H-pyrrolo[2,3-d]pyrimidin-7-yI)-4-((2-amino-3-bromoquinolin-7-yl)methyl)hexahydropentalene-1,6a(1H)-diol] showed an EC50 of 0.6 nM.
For Nc1nc2cc(C[C@@H]3CC[C@@]4(O)[C@@H]3O[C@@H](n3cc(F)c5c(N)ncnc53)[C@@H]4O)cc(F)c2cc1F [Example 24, (2R,3R,3aS,6S,6aR)-6-((2-amino-3,5-difluoroquinolin-7-yl)methyl)-2-(4-amino-5-fluoro-7H-pyrrolo[2,3-d]pyrimidin-7-yl)hexahydro-3aH-cyclopenta[b]furan-3,3a-diol], the EC50 was 1.3 nM.
Molecule Nc1nc2cc(C[C@@H]3OC[C@@]4(O)[C@@H]3O[C@@H](n3ccc5c(N)ncnc53)[C@@H]4O)ccc2cc1Br [Example 136, (2R,3R,3aS,6S,6aR)-6-((2-amino-3-bromoquinolin-7-yl)methyl)-2-(4-amino-7H-pyrrolo[2,3-d]pyrimidin-7-yl)tetrahydrofuro[3,4-b]furan-3,3a(4H)-diol] has an EC50 of 0.4 nM.
With Cc1ncnc2c1ccn2[C@@H]1O[C@@H]2[C@H](Cc3ccc4cc(C(F)(F)F)c(N)nc4c3)CC[C@]2(O)[C@H]1O [Example 88, (2R,3R,3aS,6S,6aR)-6-((2-amino-3-(trifluoromethyl)quinolin-7-yl)methyl)-2-(4-methyl-7H-pyrrolo[2,3-d]pyrimidin-7-yl)hexahydro-3aH-cyclopenta[b]furan-3,3a-diol] the EC50 was 25.3 nM.
With Nc1nc2cc(O[C@H]3CC[C@@]4(O)[C@@H]3O[C@@H](n3ccc5c(Cl)ncnc53)[C@@H]4O)ccc2cc1Br [Example 5, (2R,3R,3aS,6S,6aR)-6-((2-amino-3-bromoquinolin-7-yl)oxy)-2-(4-chloro-7H-pyrrolo[2,3-d]pyrimidin-7-yl)hexahydro-2H-cyclopenta[b]furan-3,3a-diol] the EC50 was 19 nM.
Cc1cn([C@@H]2O[C@@H]3[C@@H](Oc4ccc5cc(Br)c(N)nc5c4)CC[C@]3(O)[C@H]2O)c2ncnc(N)c12 [Example 60, (2R,3R,3aS,6S,6aR)-6-((2-amino-3-bromoquinolin-7-yl)oxy)-2-(4-amino-5-methyl-7H-pyrrolo[2,3-d]pyrimidin-7-yl)hexahydro-3aH-cyclopenta[b]furan-3,3a-diol] gave an EC50 of 1.5 nM.
Molecule Nc1nc2cc(C[C@@H]3CC[C@@]4(O)[C@@H]3O[C@@H](n3ccc5c(N)ncnc53)[C@@H]4O)cc(F)c2cc1F [Example 29, (2R,3R,3aS,6S,6aR)-6-[(2-amino-3,5-difluoroquinolin-7-yl)methyl]-2-(4-amino-7H-pyrrolo[2,3-d]pyrimidin-7-yl)hexahydro-3aH-cyclopenta[b]furan-3,3a-diol] has an EC50 of 1.7 nM.
Nc1nc2cc(C[C@@H]3CC[C@@]4(O)[C@@H]3O[C@@H](n3ccc5c(N)nc(Cl)nc53)[C@@H]4O)ccc2cc1F [Example 48, (2R,3R,3aS,6S,6aR)-2-(4-amino-2-chloro-7H-pyrrolo[2,3-d]pyrimidin-7-yl)-6-[(2-amino-3-fluoroquinolin-7-yl)methyl]hexahydro-3aH-cyclopenta[b]furan-3,3a-diol] was tested, and the EC50 was 1.7 nM.
In the case of Nc1nc2cc(C[C@@H]3CC[C@@]4(O)[C@@H]3O[C@@H](n3ccc5c(N)ncnc53)[C@@H]4O)c(F)cc2cc1F [Example 27], the EC50 is reported as 2.8 nM.
Molecule Nc1nc2cc(C[C@@H]3CC[C@@]4(O)[C@@H]3O[C@@H](n3ccc5c(N)nc(F)nc53)[C@@H]4O)ccc2cc1F [Example 45, (2R,3R,3aS,6S,6aR)-2(4-amino-2-fluoro-7H-pyrrolo[2,3-d]pyrimidin-7-yl)-6-((2-amino-3-fluoroquinolin-7-yl)methyl)hexahydro-3aH-cyclopenta[b]furan-3,3a-diol] has an EC50 of 1.2 nM.
With Nc1nc2cc(O[C@H]3CC[C@@]4(O)[C@@H]3O[C@@H](n3ccc5c(N)ncnc53)[C@@H]4O)ccc2cc1C(F)F [Example 128, (2R,3R,3aS,6S,6aR)-6-((2-amino-3-(difluoromethyl)quinolin-7-yl)oxy)-2-(4-amino-7H-pyrrolo[2,3-d]pyrimidin-7-yl)hexahydro-3aH-cyclopenta[b]furan-3,3a-diol] the EC50 was 15.5 nM.
Molecule Cc1ncnc2c1ccn2[C@@H]1O[C@@H]2[C@@H](Cc3ccc4cc(Cl)c(N)nc4c3)CC[C@]2(O)[C@H]1O [Example 131, (2R,3R,3aS,6R,6aR)-6-((2-amino-3-chloroquinolin-7-yl)methyl)-2-(4-methyl-7H-pyrrolo[2,3-d]pyrimidin-7-yl)hexahydro-3aH-cyclopenta[b]furan-3,3a-diol] has an EC50 of 21.3 nM.
